PMC3926802 (Molecular pharmaceutics, 2012)
Where “and” joins values, the source holds several entries; their conditions need not be identical. Equal entries are not always repeated. Where two headings read alike, the source gives them in different places.

How the values were obtained:
[1] = Thermodynamic solubility in water for injection; format: physicochemical; details: for Solubility: water for injection (pH 6.4), 37 °C, 6 hours
Buffer = format: physicochemical; details: buffer (pH 7.4), 37°C, 24 hours
[2] = In vivo tissue distribution and bioconversion after topical eye drop; set-up: species or system pigmented rabbits
Log D = details: n-octanol and PBS buffer (pH 7.4), 37 °C; mean ± SD, n = 3
[3] = In vitro transport across SCRPE; details: for Cumulative % transport compared with GFX, SCRPE / Fold improvement in permeability compared to GFX, SCRPE: 200 μM donor; for Cumulative % transport compared with GFX, SCRPE: no inhibitor; for Fold improvement in permeability compared to GFX, SCRPE: pH 7.4, 37 °C; for GFX levels formed in the prodrug group, SCRPE: during in vitro transport study
[4] = In vitro transport across cornea; details: for Cumulative % transport compared with GFX, cornea / Fold improvement in permeability compared to GFX, cornea: 200 μM donor; for Cumulative % transport compared with GFX, cornea: no inhibitor; for Fold improvement in permeability compared to GFX, cornea: pH 7.4, 37 °C; for GFX levels formed in the prodrug group, cornea: during in vitro transport study
[5] = In vitro transport across conjunctiva; details: for Cumulative % transport compared with GFX, conjunctiva / Fold improvement in permeability compared to GFX, conjunctiva: 200 μM donor; for Cumulative % transport compared with GFX, conjunctiva: no inhibitor; for Fold improvement in permeability compared to GFX, conjunctiva: pH 7.4, 37 °C; for GFX levels formed in the prodrug group, conjunctiva: during in vitro transport study
[6] = cited from earlier work
[7] = cited from earlier work; remark: listed apart in the source
[8] = 1 hour after topical dose of DMAP-GFX
[9] = MPP+ (500 μM), OCT inhibitor, versus no inhibitor
[10] = absence of OCT inhibitor MPP+, printed as compared to GFX
[11] = α-methyl-DL-tryptophan, ATB (0, +) inhibitor, versus no inhibitor
[12] = topical eye drop dosing in rabbits

Row | SMILES | Solubility ([1]; mean ± SD, n = 3) [µg/mL] | GFX formed from prodrug (Buffer) [%] | Solubility [1] [mM] | Log D (pH 7.4) (Log D) | Cumulative % transport compared with GFX, SCRPE [3] | Fold improvement in permeability compared to GFX, SCRPE [3] | GFX levels formed in the prodrug group, SCRPE [3] | Cumulative % transport compared with GFX, cornea [4] | Fold improvement in permeability compared to GFX, cornea [4] | GFX levels formed in the prodrug group, cornea [4] | Cumulative % transport compared with GFX, conjunctiva [5] | Fold improvement in permeability compared to GFX, conjunctiva [5] | GFX levels formed in the prodrug group, conjunctiva [5] | other results
1 | COc1c(N2CCNC(C)C2)c(F)cc2c(=O)c(C(=O)NCCCC(=O)O)cn(C3CC3)c12 (racemic) [CP-GFX, (±)-4-(1-cyclopropyl-6-fluoro-8-methoxy-7-(3-methylpiperazin-1-yl)-4-oxo-1,4-dihydroquinoline-3-carboxamido)butanoic acid] | 3010 ± 200 | 8.63 | – | – | – | – | – | – | – | – | – | – | – | Log D (pH 7.4): 0.11 ± 0.01
2 | COc1c(N2CCNC(C)C2)c(F)cc2c(=O)c(C(=O)NCCCN(C)C)cn(C3CC3)c12 (racemic) [DMAP-GFX, (±)-1-cyclopropyl-N-(3-(dimethylamino)propyl)-6-fluoro-8-methoxy-7-(3-methylpiperazin-1-yl)-4-oxo-1,4-dihydroquinoline-3-carboxamide] | 33260 ± 3000 | 9.51 | 72 | 0.05 ± 0.01 | significantly higher than GFX | 1.9 fold and 1.95 fold | below the detection limits | significantly higher than GFX | 1.4 fold and 1.42 fold | below the detection limits | significantly higher than GFX | 1.8 fold and 1.85 fold | below the detection limits | Fold higher solubility than CP-GFX ([1]; compared to CP-GFX (6.0 mM)): 12 fold; Fold greater solubility than GFX ([1]; compared to GFX): 12.8 fold; Formed drug (GFX) levels as % of the total drug, CRPE [2, 8]: 13%; Formed drug (GFX) levels as % of the total drug, conjunctiva [2, 8]: 70%; Formed drug (GFX) levels as % of the total drug, cornea [2, 8]: 8%; Formed drug (GFX) levels as % of the total drug, iris-ciliary body [2, 8]: 24%; Formed drug (GFX) levels as % of the total drug, retina [2, 8]: 55%; Formed drug (GFX) levels as % of the total drug, sclera [2, 8]: 29%; Formed drug (GFX) levels as % of the total drug, vitreous humor [2, 8]: 60%; Drug levels in the remaining tissues, prodrug versus drug group ([2]; 1 hour after topical eye drop, tissues other than vitreous humor and CRPE): not significantly different; Cumulative % transport in the presence of MPP+, SCRPE [3, 9]: significantly lower; Permeability in the absence of inhibitor, fold higher, SCRPE [3, 10]: 2.06 fold; Cumulative % transport in the presence of MPP+, cornea [4, 9]: significantly lower; Permeability in the absence of inhibitor, fold higher, cornea [4, 10]: 1.42 fold; Cumulative % transport in the presence of MPP+, conjunctiva [5, 9]: significantly lower
3 | COc1c(N2CCN(C(=O)[C@@H](N)CC(C)C)C(C)C2)c(F)cc2c(=O)c(C(=O)O)cn(C3CC3)c12 (some centres unmarked) [APM-GFX] | 2160 ± 300 | 8.97 | 4 | 1.04 ± 0.02 | did not show any improvement | did not show any improvement | below the detection limits | did not show any improvement | did not show any improvement | below the detection limits | did not show any improvement | did not show any improvement | below the detection limits | Transport in the presence of α-methyl-DL-tryptophan, SCRPE [3, 11]: did not show any change; Transport in the presence of α-methyl-DL-tryptophan, cornea [4, 11]: did not show any change; Transport in the presence of α-methyl-DL-tryptophan, conjunctiva [5, 11]: did not show any change
4 | COc1c(N2CCNC(C)C2)c(F)cc2c(=O)c(C(=O)O)cn(C3CC3)c12 (centres unmarked) [GFX, Gatifloxacin sesquihydrate] | – | – | – | – | – | – | – | – | – | – | – | – | – | solubility at 6 h ([1]; water for injection, pH 6.4): 2600 µg/mL and 7000 µM; pKa, carboxylic acid (reported) [6]: 5.94; Tmax in vitreous humor ([7]; single eye drop, pigmented rabbits): 60 min; Tmax, conjunctiva [7, 12]: 4.98 min; Tmax, plasma [7, 12]: 4.98 min; Tmax, tear fluid [7, 12]: 4.98 min
